Measurements from patent US12331093B2, “Fusion polypeptides for metabolic disorders” (BEIJING QL BIOPHARMACEUTICAL CO., LTD., priority 2021, dated 2025).

How the values were obtained:
[1] = Metabolic parameters in DIO animal model, 21 days; format: in vivo, C57BL/6 mice; conditions: DIO mice, QD subcutaneously, FIG. 4B
Description: 16 week old DIO male C57BL/6 mice (35˜40 g) were injected once daily (QD) subcutaneously with designated GLP-1/FGF21 conjugates (i.e., MLC #9, MLC #14, MLC #16 and MLC #17) for 21 days. Food intake and body weight were measured once everyday and non-fasting blood glucose was measured once every three days. Five animals were used for each treatment group. Body weight and blood glucose was monitored for each individual animal, but food intake for each group of animals was measured together. Day 1 and Day 21 are first day and last day respectively of the treatment. Terminal blood was collected and EDTA-K3 plasma was prepared and frozen at −80° C. for biomarker measurement (LDL-C, TC, TG, ALT, insulin, adiponectin). Liver and adipose tissue were also collected and frozen in liquid nitrogen and store at −80° C. Data are indicated as mean values and standard error (SEM) or pooled values. Statistical analysis was performed by One-way ANOVA. Body weight reduction on Day 21 is calculated by −1*(% BW loss−% BW loss of vehicle group); Cumulative food intake reduction is calculated by −100*(cumulative food intake−cumulative food intake of vehicle)/cumulative food intake of vehicle.

[2] = Food intake and body weight reduction in DIO mice; format: in vivo, C57BL/6 mice; conditions: 10 nmol/kg QD
Description: 22 week old DIO male C57BL/6 mice (˜50 g) were injected once every other day (Q2D) subcutaneously with designated GLP-1 polypeptide conjugates (i.e., Molecule 012) for 25 days. Food intake and body weight were measured twice a week and fasting blood glucose was measured once a week. Five animals were used for each treatment group. Body weight and fasting blood glucose was monitored for each individual animal, but food intake for each group animals was measured together. Day 1 and Day 25 are first day and last day of molecule dosage. Data are indicated as mean values and standard error (SEM) or pooled values. Statistical analysis was performed by One-way ANOVA. Body weight reduction on Day 25 is calculated by −1*(% BW loss−% BW loss of vehicle group); Cumulative food intake reduction is calculated by −100*(cumulative food intake−cumulative food intake of vehicle)/cumulative food intake of vehicle.

[3] = target: T1, human beta-Klotho (Homo sapiens, UniProt Q86Z14); assay: In vitro FGF21 activity, p-ERK levels in HEK293 cell line overexpressing human beta-Klotho; format: cell-based; conditions: compared with YH-dual
T1 construct: expressed in transfected cells; host or cells: HEK293 cell line
Description: The in vitro FGF21 activities of the fusion protein were assessed using a HEK293 cell line overexpressing human beta-Klotho. Tested fusion protein conjugates were measured at 400 nM top concentration with 4-fold serial dilutions in the presence of 1% HSA. After cells were treated with fusion protein conjugates for 12 mins, p-ERK levels were measured by p-ERK kit (Cisbio, 64ERKPEH).
The activity of each fusion protein was represented by EC50, derived from non-linear regression analysis.

Row | Substance | non-fasting glucose level [1] [mmol/L] | Body weight reduction (% reduction compared to vehicle) (Day 11) [2] [%] | Cumulative food intake reduction (% reduction compared to vehicle) (Day 11) [2] [%] | FGF21 efficacy (FIGS. 2A and 2B) [3]
1 | Semaglutide [reference compound] | 7.5 to 10 | – | – | –
2 | Control#6: GLP1(del7-8, 22E, 36G)-(GAQP)5-ALB8-(GAQP)-FGF21 (121Q, 168L, 171G, 180E), SEQ ID NO: 78, GLP1 dead [reference compound] | – | 24.6 | 13.1 | significantly higher FGF21 efficacy than YH-dual
3 | Control#2: GLP1(del7-8, 22E, 36G)-(GAQP)5-ALB8-(GAQP)10-FGF21 (121Q, 168L, 171G, 180E), SEQ ID NO: 72, GLP1 dead [reference compound] | – | 21.7 | 19.1 | –
